Test results from publication PMC7501296, “Rapid and direct control of target protein levels with VHL-recruiting dTAG molecules” (Nature Communications, 2020).
Where “and” joins values, the source holds several entries; their conditions need not be identical. Equal entries are not always repeated. Where two headings read alike, the source gives them in different places.

Experiments:
[1] = Pharmacokinetic evaluation in mice; type: in vivo, C57BL/6J male mice
Source text: For IP injections, dTAG-13 and dTAG^V-1 were formulated by dissolving into DMSO and then diluting with 20% solutol (Sigma): 0.9% sterile saline (Moltox) (w:v) with the final formulation containing 5% DMSO. […] Formulations were stable at room temperature for 7 days. For IV injections, dTAG-13 and dTAG^V-1 were formulated by dissolving into DMSO and then diluting with 5% solutol (Sigma): 0.9% sterile saline (Moltox) (w:v) with the final formulation containing 5% DMSO. All procedures for PK studies were compliant with ethical regulations for animal testing and research, and were approved by and performed in accordance with standards of the Institute Animal Care and Use Committee (IACUC) at Scripps Florida. Housing conditions for mice at Scripps Florida were as follows: lights on = 7 AM, lights off = 7 PM, average ambient temperature = 72 °F, and average humidity = 45%. PK was assessed in 8-week-old C57BL/6J male mice (Jackson Laboratory, #000664) with blood collected at 0.08, 0.25, 0.5, 1, 2, 4, 6, and 8 h (2 mg kg^−1 dTAG-13 intravenous (IV) tail vein, 10 mg kg^−1 dTAG-13 intraperitoneal (IP), and 2 mg kg^−1 dTAG^V-1 IV tail vein administrations) and 0.25, 0.5, 1, 2, 4, 6, 8, 24 and 48 h (2 mg kg^−1 dTAG^V-1 IP and 10 mg kg^−1 dTAG^V-1 IP administrations). Plasma was generated by centrifugation and plasma concentrations were determined by LC-MS/MS following the mass transition 49600à340 AMU. PK parameters were calculated using Phoenix WinNonlin to determine peak plasma concentration (Cmax), oral bioavailability (%F), exposure (AUC), half-life (t1/2), clearance (CL), and volume of distribution (Vd).

[2] = system: EWS502 FKBP12^F36V-EWS/FLI; EWS/FLI^−/− cells; assay: Synergy assessment: antiproliferation of EWS502 FKBP12F36V-EWS/FLI; EWS/FLI-/- cells co-treated with dTAGV-1 and dBET6, 72 h; type: cell-based
Protocol: (§1) Cell viability was assayed in 2D-adherent or ultra-low adherent 3D-spheroids using CellTiter-Glo (Promega)[6],[15]. Luminescence was measured on an Envision 2104 plate reader (PerkinElmer) and Fluostar Omega Reader (BMG Labtech) and data was analyzed using GraphPad PRISM v8. Synergy assessments were performed using CellTiter-Glo (Promega) with the following modifications to the protocol described in the ref. [34]. In brief, EWS502 cells were plated at 1000 cells per well in 50 µL of appropriate media in 384-well white culture plates (Corning) allowed to adhere overnight, and 100 nL of compounds were added using a Janus Workstation pin tool (PerkinElmer) for 72 h. Cell viability was measured by addition of 10 µL of CellTiter-glo (Promega), followed by incubation for 15 minutes at room temperature. Luminescence was measured on an Envision 2104 plate reader (PerkinElmer) and data was analyzed using GraphPad PRISM v8.

[3] = system: EWS502 FKBP12^F36V-EWS/FLI; EWS/FLI^−/− cells; assay: Relative growth of EWS502 FKBP12F36V-EWS/FLI; EWS/FLI-/- cells (CellTiter-Glo); type: cell-based; conditions: for Relative growth (luminescence values relative to day 0): EWS502 FKBP12F36V-EWS/FLI, EWS/FLI-/-; for Antiproliferation (relative growth): replicate values
Protocol: as §1

[4] = intraperitoneal administration at 10 mg kg^−1
[5] = male, C57BL/6J, mouse, plasma, IP, 2 mg kg-1
[6] = male, C57BL/6J, mouse, plasma, IP, 10 mg kg-1
[7] = male, C57BL/6J, mouse, plasma, IV, 2 mg kg-1

In the case of `CC[C@H](C(=O)N1CCCC[C@H]1C(=O)O[C@H](CCc1ccc(OC)c(OC)c1)c1ccccc1OCC(=O)NCCCCCCC(=O)N[C@H](C(=O)N1C[C@H](O)C[C@H]1C(=O)N[C@@H](C)c1ccc(-c2scnc2C)cc1)C(C)(C)C)c1cc(OC)c(OC)c(OC)c1` [dTAG^V-1], the CL ([1]; IP, 2 mg kg-1) is reported as 10.7 mL/min/kg, the CL ([1]; IP, 10 mg kg-1) is reported as 9.05 mL/min/kg and the “exposure (AUCinf)” value [1, 4] is reported as 18,517 h ng mL^−1. The “half-life (T1/2)” value [1, 4] was 4.43 h, the AUC(0-inf) [1, 5] was 3140 ng·h/mL and the AUC(0-t) [1, 5] was 2240 ng·h/mL. For the same molecule, the half-life [1, 5] was 3.64 h, the Cmax ([1]; male, C57BL/6J, mouse, plasma, IP, 2 mg kg-1, read-out: Cmax) was 595 ng/mL and the Tmax ([1]; male, C57BL/6J, mouse, plasma, IP, 2 mg kg-1, read-out: Tmax) was 1.67 h. It also gave an AUC(0-inf) [1, 6] of 18500 ng·h/mL, an AUC(0-t) [1, 6] of 18100 ng·h/mL and a half-life [1, 6] of 4.43 h. For the same molecule, the Cmax ([1]; male, C57BL/6J, mouse, plasma, IP, 10 mg kg-1, read-out: Cmax) was 2120 ng/mL, the Tmax ([1]; male, C57BL/6J, mouse, plasma, IP, 10 mg kg-1, read-out: Tmax) was 2 h and the AUC(0-inf) [1, 7] was 3330 ng·h/mL. It also gave an AUC(0-t) [1, 7] of 3240 ng·h/mL, a clearance [1, 7] of 10.1 mL/min/kg and a half-life [1, 7] of 3.02 h. It also gave a Cmax ([1]; male, C57BL/6J, mouse, plasma, IV, 2 mg kg-1, read-out: Cmax) of 7780 ng/mL, a Tmax ([1]; male, C57BL/6J, mouse, plasma, IV, 2 mg kg-1, read-out: Tmax) of 0.08 h and a Vd ([1]; male, C57BL/6J, mouse, plasma, IV, 2 mg kg-1, read-out: Vss) of 0.56 L/kg. The “Average DMSO-normalized ratio used for CI calculation” value ([2]; 19.5 nM dTAGV-1 alone) was 0.9622, the “Average DMSO-normalized ratio used for CI calculation” value ([2]; 78 nM dTAGV-1 alone) was 1.188 and the “Average DMSO-normalized ratio used for CI calculation” value ([2]; 312.5 nM dTAGV-1 alone) was 1.089. The “Average DMSO-normalized ratio used for CI calculation” value ([2]; 1250 nM dTAGV-1 alone) was 1.112, the “Average DMSO-normalized ratio used for CI calculation” value ([2]; 5000 nM dTAGV-1 alone) was 1.06 and the “DMSO-normalized antiproliferation, Mean” value ([2]; co-treatment 19.5 nM dTAGV-1 (log10[M] -7.70927) + 1 nM dBET6 (log10[M] -9.0103)) was 98.11. For the same molecule, the “DMSO-normalized antiproliferation, Mean” value ([2]; co-treatment 19.5 nM dTAGV-1 (log10[M] -7.70927) + 4 nM dBET6 (log10[M] -8.40824)) was 98.09, the “DMSO-normalized antiproliferation, Mean” value ([2]; co-treatment 19.5 nM dTAGV-1 (log10[M] -7.70927) + 15.6 nM dBET6 (log10[M] -7.80618)) was 79.8 and the “DMSO-normalized antiproliferation, Mean” value ([2]; co-treatment 19.5 nM dTAGV-1 (log10[M] -7.70927) + 62.5 nM dBET6 (log10[M] -7.20412)) was 50.57. The “DMSO-normalized antiproliferation, Mean” value ([2]; co-treatment 19.5 nM dTAGV-1 (log10[M] -7.70927) + 250 nM dBET6 (log10[M] -6.60206)) was 35.76, the “DMSO-normalized antiproliferation, Mean” value ([2]; co-treatment 78 nM dTAGV-1 (log10[M] -7.10721) + 1 nM dBET6 (log10[M] -9.0103)) was 113.36 and the “DMSO-normalized antiproliferation, Mean” value ([2]; co-treatment 78 nM dTAGV-1 (log10[M] -7.10721) + 4 nM dBET6 (log10[M] -8.40824)) was 105.67. For the same molecule, the “DMSO-normalized antiproliferation, Mean” value ([2]; co-treatment 78 nM dTAGV-1 (log10[M] -7.10721) + 15.6 nM dBET6 (log10[M] -7.80618)) was 83.17, the “DMSO-normalized antiproliferation, Mean” value ([2]; co-treatment 78 nM dTAGV-1 (log10[M] -7.10721) + 62.5 nM dBET6 (log10[M] -7.20412)) was 54.14 and the “DMSO-normalized antiproliferation, Mean” value ([2]; co-treatment 78 nM dTAGV-1 (log10[M] -7.10721) + 250 nM dBET6 (log10[M] -6.60206)) was 36.78. For the same molecule, the “DMSO-normalized antiproliferation, Mean” value ([2]; co-treatment 312.5 nM dTAGV-1 (log10[M] -6.50515) + 1 nM dBET6 (log10[M] -9.0103)) was 111.14, the “DMSO-normalized antiproliferation, Mean” value ([2]; co-treatment 312.5 nM dTAGV-1 (log10[M] -6.50515) + 4 nM dBET6 (log10[M] -8.40824)) was 105.95 and the “DMSO-normalized antiproliferation, Mean” value ([2]; co-treatment 312.5 nM dTAGV-1 (log10[M] -6.50515) + 15.6 nM dBET6 (log10[M] -7.80618)) was 72.28. The “DMSO-normalized antiproliferation, Mean” value ([2]; co-treatment 312.5 nM dTAGV-1 (log10[M] -6.50515) + 62.5 nM dBET6 (log10[M] -7.20412)) was 49.08, the “DMSO-normalized antiproliferation, Mean” value ([2]; co-treatment 312.5 nM dTAGV-1 (log10[M] -6.50515) + 250 nM dBET6 (log10[M] -6.60206)) was 33.26 and the “DMSO-normalized antiproliferation, Mean” value ([2]; co-treatment 1250 nM dTAGV-1 (log10[M] -5.90309) + 1 nM dBET6 (log10[M] -9.0103)) was 89.48. The “DMSO-normalized antiproliferation, Mean” value ([2]; co-treatment 1250 nM dTAGV-1 (log10[M] -5.90309) + 4 nM dBET6 (log10[M] -8.40824)) was 74.91, the “DMSO-normalized antiproliferation, Mean” value ([2]; co-treatment 1250 nM dTAGV-1 (log10[M] -5.90309) + 15.6 nM dBET6 (log10[M] -7.80618)) was 44.25 and the “DMSO-normalized antiproliferation, Mean” value ([2]; co-treatment 1250 nM dTAGV-1 (log10[M] -5.90309) + 62.5 nM dBET6 (log10[M] -7.20412)) was 31.06. For the same molecule, the “DMSO-normalized antiproliferation, Mean” value ([2]; co-treatment 1250 nM dTAGV-1 (log10[M] -5.90309) + 250 nM dBET6 (log10[M] -6.60206)) was 29.68, the “DMSO-normalized antiproliferation, Mean” value ([2]; co-treatment 5000 nM dTAGV-1 (log10[M] -5.30103) + 1 nM dBET6 (log10[M] -9.0103)) was 80.15 and the “DMSO-normalized antiproliferation, Mean” value ([2]; co-treatment 5000 nM dTAGV-1 (log10[M] -5.30103) + 4 nM dBET6 (log10[M] -8.40824)) was 47.93. The “DMSO-normalized antiproliferation, Mean” value ([2]; co-treatment 5000 nM dTAGV-1 (log10[M] -5.30103) + 15.6 nM dBET6 (log10[M] -7.80618)) was 27.9, the “DMSO-normalized antiproliferation, Mean” value ([2]; co-treatment 5000 nM dTAGV-1 (log10[M] -5.30103) + 62.5 nM dBET6 (log10[M] -7.20412)) was 26.15 and the “DMSO-normalized antiproliferation, Mean” value ([2]; co-treatment 5000 nM dTAGV-1 (log10[M] -5.30103) + 250 nM dBET6 (log10[M] -6.60206)) was 25.03. For the same molecule, the “DMSO-normalized antiproliferation, Mean” value ([2]; dTAGV-1 log10[M] -5.30103, with DMSO (no dBET6)) was 106.03, the “DMSO-normalized antiproliferation, Mean” value ([2]; dTAGV-1 log10[M] -5.90309, with DMSO (no dBET6)) was 111.22 and the “DMSO-normalized antiproliferation, Mean” value ([2]; dTAGV-1 log10[M] -6.50515, with DMSO (no dBET6)) was 108.9. The “DMSO-normalized antiproliferation, Mean” value ([2]; dTAGV-1 log10[M] -7.10721, with DMSO (no dBET6)) was 118.75, the “DMSO-normalized antiproliferation, Mean” value ([2]; dTAGV-1 log10[M] -7.70927, with DMSO (no dBET6)) was 96.22 and the “Relative growth (luminescence values relative to day 0)” value ([3]; day 0, technical replicates) was 0.8696 and 1.038 (2×) and 1.097 and 0.9086 and 1.006 and 0.975 and 1.069. For the same molecule, the “Relative growth (luminescence values relative to day 0)” value ([3]; day 3, technical replicates) was 3.17 and 3.081 and 3.35 and 3.515 and 3.02 and 3.212 and 3.235 and 3.093, the “Relative growth (luminescence values relative to day 0)” value ([3]; day 5, technical replicates) was 3.571 and 3.881 and 3.894 and 3.809 and 3.6579 and 3.634 and 3.713 and 3.678 and the “Relative growth (luminescence values relative to day 0)” value ([3]; day 7, technical replicates) was 4.1 and 3.846 and 4.015 and 4.459 and 4.182 and 3.984 and 3.963 and 4.228. For the same molecule, the “Antiproliferation (relative growth)” value ([3]; Time 0 days) was 1.031 and 1.006 and 0.9491 and 0.9896 and 1.023 and 0.9889 and 1.015 and 0.9988, the “Antiproliferation (relative growth)” value ([3]; Time 3 days) was 3.562 and 3.604 and 3.659 and 3.498 and 3.439 and 4 and 3.9346 and 3.855 and the “Antiproliferation (relative growth)” value ([3]; Time 5 days) was 4.651 and 4.613 and 4.429 and 4.423 and 4.852 and 4.574 and 4.874 and 4.602. The “Antiproliferation (relative growth)” value ([3]; Time 7 days) was 4.558 and 4.146 and 4.393 and 4.598 and 4.588 and 4.347 and 4.317 and 4.895 and the “Antiproliferative effects upon EWS/FLI degradation” value ([3]; longer time-points) was “Potent antiproliferative effects”.
